{"source": "patent US20230190697A1", "about": "“METHODS FOR TREATING VIRAL INFECTIONS WITH NAFAMOSTAT” (priority 2020, published 2023)", "key": {"[1]": {"target": "hERG K+ channel (Homo sapiens, UniProt Q12809)", "sequence (Q12809 whole entry)": "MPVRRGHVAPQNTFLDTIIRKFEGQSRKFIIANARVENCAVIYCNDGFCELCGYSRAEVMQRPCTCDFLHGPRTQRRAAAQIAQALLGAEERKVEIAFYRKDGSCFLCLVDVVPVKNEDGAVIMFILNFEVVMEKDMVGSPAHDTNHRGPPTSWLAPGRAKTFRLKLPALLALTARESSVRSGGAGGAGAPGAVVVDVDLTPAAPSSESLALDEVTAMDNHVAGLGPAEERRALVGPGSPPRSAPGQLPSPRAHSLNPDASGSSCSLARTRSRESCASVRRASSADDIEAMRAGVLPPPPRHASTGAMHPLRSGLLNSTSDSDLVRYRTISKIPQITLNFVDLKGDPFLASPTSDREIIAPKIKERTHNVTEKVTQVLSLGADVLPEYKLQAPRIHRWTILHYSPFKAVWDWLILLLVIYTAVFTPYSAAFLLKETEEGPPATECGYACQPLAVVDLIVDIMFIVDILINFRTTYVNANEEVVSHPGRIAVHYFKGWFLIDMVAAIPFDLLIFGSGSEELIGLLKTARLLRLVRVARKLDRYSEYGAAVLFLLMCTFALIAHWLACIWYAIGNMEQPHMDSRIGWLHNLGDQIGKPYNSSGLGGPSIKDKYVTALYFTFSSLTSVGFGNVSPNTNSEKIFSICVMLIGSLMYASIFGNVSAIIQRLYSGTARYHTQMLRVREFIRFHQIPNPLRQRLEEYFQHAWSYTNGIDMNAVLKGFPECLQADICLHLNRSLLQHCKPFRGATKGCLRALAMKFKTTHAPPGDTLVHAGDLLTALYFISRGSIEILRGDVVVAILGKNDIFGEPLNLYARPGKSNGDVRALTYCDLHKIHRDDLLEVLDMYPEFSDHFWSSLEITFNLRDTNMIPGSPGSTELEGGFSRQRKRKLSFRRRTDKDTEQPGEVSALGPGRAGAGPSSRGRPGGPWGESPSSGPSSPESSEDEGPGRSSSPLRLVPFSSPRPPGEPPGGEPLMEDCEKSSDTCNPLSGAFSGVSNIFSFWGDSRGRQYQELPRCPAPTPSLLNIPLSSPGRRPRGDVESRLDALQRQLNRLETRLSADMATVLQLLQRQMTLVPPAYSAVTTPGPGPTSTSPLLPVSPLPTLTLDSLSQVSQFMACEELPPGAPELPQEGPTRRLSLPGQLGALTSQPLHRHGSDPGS", "assay": "cell-based", "details": "human, 50 µM", "experimental": "Effects of nafamostat in an hERG assay: In an in vitro non-GLP screening study, effects of nafamostat on the hERG K^+ channel currents were evaluated in voltage-clamped human embryonic kidney cells at room temperature. […] A full ICH-Compliant hERG study and in vivo cardiovascular safety pharmacology study is be performed as part of the IND-enabling program."}, "[2]": {"system": "SD rats", "assay": "Single dose oral tolerability in SD rats (dose range-finding)", "type": "in vivo", "from_the_text": "Oral Tolerability in Rats: The single dose tolerability to oral nafamostat was studied in SD rats in a non-GLP pilot dose range-finding study. […] All other animals survived to 7 days and had no abnormalities at necropsy."}, "[3]": {"system": "SD rats", "assay": "Pilot repeat-dose oral study in male SD rats (5 days)", "type": "in vivo", "details": "1000 mg/kg/day PO for 5 days", "experimental": "A pilot, non-GLP repeat-dose study was performed in which nafamostat mesylate (500 or 1000 mg/kg/day PO) was administered to 6 male SD rats per group for 5 days. […] One animal had petechiae on the lower third of the colon. […] Death in 2 of the animals followed seizure activity at about 1 h post-dose."}, "[4]": {"assay": "Pharmacokinetics of oral nafamostat mesylate solution in healthy male and female subjects", "type": "in vivo, human", "details": "human, oral, 200 mg dose level, individual subjects", "experimental": "Part 1: Single Ascending Dose Study. Male and female subjects aged 18 - 70 were administered a single dose of 50 mg nafamostat mesylate on day 1, 100 mg nafamostat mesylate on day 3 or 4, and 200 mg nafamostat mesylate on day 5, 6, or 7. Nafamostat mesylate was administered in the form of an oral solution. […]\nPart 2: Multiple Ascending Dose Study. Subjects were divided into 2 cohorts. Cohort 1 received an oral solution of 100 mg/mL nafamostat mesylate twice a day for 5 days with pharmacokinetic evaluations on each day. […] Safety evaluations continued for 48 hours after the last dose. After review and evidence of safety, Cohort 2 received an oral solution of 200 mg/mL nafamostat mesylate twice a day for 5 days with pharmacokinetic evaluations on each day. […] Safety evaluations continued for 48 hours after the last dose.\nPart 3: Single Fixed Dose Administered Twice Daily for 5 Days. Six subjects, different than the subjects from Parts 1 and 2, received an oral solution of 200 mg/mL nafamostat mesylate twice a day for 5 days. Blood samples were obtained at pre-dose (0 hr.) and at 0.5, 1, 2, 3, 4, 6, and 8 hours after the first dose on Day 1 and again after the first dose on Day 5. […]\nOral solutions received by each subject were prepared by dissolving nafamostat mesylate in about 100 mL of EMETROL®/water and provided at a volume to deliver the indicated dosage. There was no placebo formulation.\nNafamostat pharmacokinetics was evaluated at the 200 mg dose levels."}}, "note": "“And” between values parts separate entries of the source, which are not always exact repeats. Equal entries are not always repeated."}
{"smiles": "CS(=O)(=O)O.CS(=O)(=O)O.N=C(N)Nc1ccc(C(=O)Oc2ccc3cc(C(=N)N)ccc3c2)cc1", "note": "[nafamostat mesylate, 6-amidino-2-naphthyl p-guanidinobenzoate dimethanesulfonate]", "values": [{"measurement": "inhibition of hERG potassium currents", "setting": "[1]", "result": "approximately 24%"}, {"measurement": "mortality", "setting": "[2]; 1000 mg/kg female dose group, stomach perforations at necropsy indicate dosing misadministration", "result": "2 of 3 animals died at 48 hours"}, {"measurement": "single dose oral tolerability", "setting": "[2]; both, SD, rat, in vivo, po, 7 days", "result": "≥ 1000", "unit": "mg/kg"}, {"measurement": "necropsy finding in animals that died", "setting": "[3]", "result": "fluid filled stomach at necropsy"}, {"measurement": "mortality", "setting": "[3]; 6 male SD rats", "result": "Four of 6 animals receiving 1000 mg/kg/day died by day 5"}, {"measurement": "concentration at 8 h", "setting": "[4]; both sexes, blood, Day 1, 8 h post-dose", "result": "< 0.1", "unit": "ng/mL"}, {"measurement": "concentration at 12 h", "setting": "[4]; both sexes, blood, Day 1, 12 h post-dose", "result": "< 0.1", "unit": "ng/mL"}, {"measurement": "NM", "setting": "[4]; Day 1, 0 h post-dose", "result": "< 0.100", "unit": "ng/mL"}, {"measurement": "NM", "setting": "[4]; Day 1, 0.5 h post-dose", "result": "< 0.100", "unit": "ng/mL"}, {"measurement": "NM", "setting": "[4]; Day 1, 1 h post-dose, listed as NM, dimethanesulfonate", "result": "< 0.100 ng/mL (4×) and 0.125 ng/mL"}, {"measurement": "NM", "setting": "[4]; Day 1, 2 h post-dose", "result": "< 0.100", "unit": "ng/mL"}, {"measurement": "NM", "setting": "[4]; Day 1, 3 h post-dose", "result": "< 0.100", "unit": "ng/mL"}, {"measurement": "NM", "setting": "[4]; Day 1, 4 h post-dose", "result": "< 0.100", "unit": "ng/mL"}, {"measurement": "NM", "setting": "[4]; Day 1, 6 h post-dose", "result": "< 0.100", "unit": "ng/mL"}, {"measurement": "NM", "setting": "[4]; Day 1, 8 h post-dose", "result": "< 0.100", "unit": "ng/mL"}, {"measurement": "NM", "setting": "[4]; Day 1, 12 h post-dose", "result": "< 0.100", "unit": "ng/mL"}, {"measurement": "NM", "setting": "[4]; Day 2, 0 h post-dose", "result": "< 0.100", "unit": "ng/mL"}, {"measurement": "NM", "setting": "[4]; Day 2, 0.5 h post-dose", "result": "< 0.100", "unit": "ng/mL"}, {"measurement": "NM", "setting": "[4]; Day 2, 1 h post-dose", "result": "< 0.100", "unit": "ng/mL"}, {"measurement": "NM", "setting": "[4]; Day 2, 2 h post-dose", "result": "< 0.100", "unit": "ng/mL"}, {"measurement": "NM", "setting": "[4]; Day 2, 3 h post-dose", "result": "< 0.100", "unit": "ng/mL"}, {"measurement": "NM", "setting": "[4]; Day 2, 4 h post-dose", "result": "< 0.100", "unit": "ng/mL"}, {"measurement": "NM", "setting": "[4]; Day 2, 6 h post-dose", "result": "< 0.100", "unit": "ng/mL"}, {"measurement": "NM", "setting": "[4]; Day 2, 8 h post-dose", "result": "< 0.100", "unit": "ng/mL"}, {"measurement": "NM", "setting": "[4]; Day 2, 12 h post-dose", "result": "< 0.100", "unit": "ng/mL"}, {"measurement": "NM", "setting": "[4]; Day 2, 16 h post-dose", "result": "< 0.100", "unit": "ng/mL"}, {"measurement": "NM", "setting": "[4]; Day 3, 0 h post-dose", "result": "< 0.100", "unit": "ng/mL"}, {"measurement": "NM", "setting": "[4]; Day 3, 4 h post-dose, listed as NM, dimethanesulfonate", "result": "< 0.100 ng/mL (2×) and 0.101 ng/mL"}, {"measurement": "NM", "setting": "[4]; Day 3, 8 h post-dose", "result": "< 0.100", "unit": "ng/mL"}, {"measurement": "NM", "setting": "[4]; Day 3, 12 h post-dose", "result": "< 0.100", "unit": "ng/mL"}, {"measurement": "NM", "setting": "[4]; Day 3, 16 h post-dose", "result": "< 0.100", "unit": "ng/mL"}, {"measurement": "NM", "setting": "[4]; Day 4, 0 h post-dose, listed as NM, dimethanesulfonate", "result": "< 0.100", "unit": "ng/mL"}, {"measurement": "NM", "setting": "[4]; Day 4, 4 h post-dose", "result": "< 0.100", "unit": "ng/mL"}]}
